In patent publication US7592478B2, “Ligand antagonists of RAR receptors and pharmaceutical/cosmetic applications thereof” (Galderma Research & Development, priority 2002, dated 2009) one finds Kd and IC50 data, which are given here for three compounds.

Structures are written as SMILES.

Format in all cases: cell-based
In test [1] the target is T1, RAR beta (Homo sapiens, UniProt P10826).
T1 sequence (P10826 183-417 limits assumed): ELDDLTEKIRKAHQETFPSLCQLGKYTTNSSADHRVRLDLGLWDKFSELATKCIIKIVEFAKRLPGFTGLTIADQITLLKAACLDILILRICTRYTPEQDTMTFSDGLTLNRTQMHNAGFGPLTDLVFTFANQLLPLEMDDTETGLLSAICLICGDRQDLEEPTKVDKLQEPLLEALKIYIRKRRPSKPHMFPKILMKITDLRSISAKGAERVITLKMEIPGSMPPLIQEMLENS
In words: Transactivation test (luciferase reporter, stably transfected HeLa cells), RAR beta. To be noted: for Kd: Schild regression vs reference agonist 4-[2-(5,5,8,8-tetramethyl-5,6,7,8-tetrahydro-2-naphthyl)propenyl]benzoic acid, read-out: RAR beta Kdapp; for IC50: at the reference agonist concentration that gives 80% activation. On the procedure:
(§1) The activation of receptors with an agonist (activator) in HeLa cells leads to the expression of a reporter gene, luciferase, which, in the presence of a substrate, generates light. The activation of the receptors may thus be measured by quantifying the luminescence produced after incubating the cells in the presence of a reference agonist. The inhibitory products displace the agonist from its site, thus preventing activation of the receptor. The activity is measured by quantifying the reduction in light produced. This measurement makes it possible to determine the inhibitory activity of the compounds according to the invention.
(§2) In this study, a constant is determined which represents the affinity of the molecule for the receptor. Since this value can fluctuate depending on the basal activity and the expression of the receptor, it is referred to as the Kd apparent (KdApp).
(§3) To determine this constant, “crossed curves” of the test product against a reference agonist, 4-[2-(5,5,8,8-tetramethyl-5,6,7,8-tetrahydro-2-naphthyl)propenyl]benzoic acid, are performed in 96-well plates. The test product is used at 10 concentrations and the reference agonist at 7 concentrations. In each well, the cells are in contact with a concentration of the test product and a concentration of the reference agonist, 4-[2-(5,5,8,8-tetramethyl-5,6,7,8-tetrahydro-2-naphthyl)propenyl]benzoic acid. Measurements are also taken for the total agonist (4-[2-(5,5,8,8-tetramethyl-5,6,7,8-tetrahydro-2-naphthyl)propenyl]benzoic acid) and inverse agonist, 4-{(E)-3-[4-(4-tert-butylphenyl)-5,5,8,8-tetramethyl-5,6,7,8-tetrahydro-2-naphthyl]-3-oxopropenyl}benzoic acid, controls.
(§4) These crossed curves make it possible to determine the AC50 values (concentration at which 50% activation is observed) for the reference ligand at various concentrations of test product. These AC50 values are used to calculate the Schild regression by plotting a straight line corresponding to the Schild equation (“quantitation in receptor pharmacology” Terry P. Kenakin, Receptors and Channels, 2001, 7, 371-385).
(§5) In the case of an antagonist, an IC50 value (concentration that inhibits 50% of the activity) is calculated by plotting the curve of the product at the concentration of the reference ligand that gives 80% activation.
(§6) The HeLa cell lines used are stable transfectants containing the plasmids ERE-βGlob-Luc-SV-Neo (reporter gene) and RAR (α, β, γ) ER-DBD-puro. These cells are inoculated into 96-well plates at a rate of 10000 cells per well in 100 μl of DMEM medium without phenol red, and supplemented with 10% defatted calf serum. The plates are then incubated at 37° C. and 7% CO2 for 4 hours.
(§7) The various dilutions of the test products, of the reference ligand (4-[2-(5,5,8,8-tetramethyl-5,6,7,8-tetrahydro-2-naphthyl)propenyl]benzoic acid), of the 100% control (100 nM 4-[2-(5,5,8,8-tetramethyl-5,6,7,8-tetrahydro-2-naphthyl)propenyl]benzoic acid) and of the 0% control (500 nM 4-{(E)-3-[4-(4-tert-butylphenyl)-5,5,8,8-tetramethyl-5,6,7,8-tetrahydro-2-naphthyl]-3-oxopropenyl}benzoic acid) are added at a rate of 5 μl per well. The plates are then incubated for 18 hours at 37° C. and 7% CO2.
(§8) The culture medium is removed by turning over and 100 μl of a 1:1 PBS/luciferine mixture is added to each well. After 5 minutes, the plates are read using the luminescence reader.
For orientation: In a reporter assay the amount or activity of a reporter protein is the signal.

For test [2], the target named is T2, RAR alpha (Homo sapiens, UniProt P10276).
T2 sequence (P10276 183-417 limits assumed): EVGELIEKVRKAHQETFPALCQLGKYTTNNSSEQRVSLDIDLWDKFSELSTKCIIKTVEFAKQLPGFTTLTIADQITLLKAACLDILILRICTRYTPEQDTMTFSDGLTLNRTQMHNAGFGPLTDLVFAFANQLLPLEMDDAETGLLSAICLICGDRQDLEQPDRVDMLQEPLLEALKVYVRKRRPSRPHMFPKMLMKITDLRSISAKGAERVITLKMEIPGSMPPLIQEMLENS
In words: Transactivation test (luciferase reporter, stably transfected HeLa cells), RAR alpha. To be noted: for Kd: Schild regression vs reference agonist 4-[2-(5,5,8,8-tetramethyl-5,6,7,8-tetrahydro-2-naphthyl)propenyl]benzoic acid, read-out: RAR alpha Kdapp; for IC50: at the reference agonist concentration that gives 80% activation. On the procedure: as §1, §2, §3, §4, §5, §6, §7, §8

Test [3] addresses T3, RAR gamma (Homo sapiens, UniProt P13631).
T3 sequence (P13631 185-419 limits assumed): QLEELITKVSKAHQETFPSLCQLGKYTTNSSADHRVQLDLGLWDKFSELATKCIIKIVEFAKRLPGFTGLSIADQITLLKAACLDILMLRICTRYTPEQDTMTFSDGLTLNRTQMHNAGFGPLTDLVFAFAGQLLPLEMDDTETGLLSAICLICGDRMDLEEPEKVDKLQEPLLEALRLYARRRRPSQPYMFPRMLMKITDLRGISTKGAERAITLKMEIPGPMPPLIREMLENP
The experiment in a line: Transactivation test (luciferase reporter, stably transfected HeLa cells), RAR gamma. To be noted: for Kd: Schild regression vs reference agonist 4-[2-(5,5,8,8-tetramethyl-5,6,7,8-tetrahydro-2-naphthyl)propenyl]benzoic acid, read-out: RAR gamma Kdapp; for IC50: at the reference agonist concentration that gives 80% activation. As to the method: as §1, §2, §3, §4, §5, §6, §7, §8

For orientation: IC50 means the concentration that inhibits the measured activity by half. In the case of `CN(C)c1ccc(C2=CCC(C)(C)c3cc(C(O)C#Cc4ccc(C(=O)O)cc4)ccc32)cc1` (stereo not drawn) [Example 19, 4-{3-[5-(4-Dimethylaminophenyl)-8,8-dimethyl-7,8-dihydro-2-naphthyl]-3-hydroxyprop-1-ynyl}benzoic acid], the Kd in test [1] came out at 120 nM; in test [2], 500 nM; in test [3], 60 nM. The IC50 in test [1] was 192 nM; in test [2], 875 nM; in test [3], 150 nM.
For the compound `Cc1ccc(C2=CCC(C)(C)c3cc([Se]C#Cc4ccc(C(=O)O)c(F)c4)ccc32)cc1` [Example 9, 4-(8,8-Dimethyl-5-p-tolyl-7,8-dihydro-2-naphthylselanylethynyl)-2-fluorobenzoic acid], the Kd in test [1] is 8 nM; in test [2] it was 120 nM; in test [3], 2 nM. In addition, the 50% inhibitory concentration (IC50) in test [1] turned out to be 12.8 nM; in test [2], 210 nM; in test [3], 5 nM.
On to `Cc1ccc(C2=CCC(C)(C)c3cc([Se]C#Cc4ccc(C(=O)O)cc4)ccc32)cc1` [Example 1, 4-(8,8-Dimethyl-5-p-tolyl-7,8-dihydro-2-naphthylselanylethynyl)benzoic acid], for which the Kd in test [1] stood at 8 nM; in test [2] it was 30 nM; in test [3] it was 2 nM. Also, the figures for the IC50 in test [1], in test [2] and in test [3] were 12.8 nM, 52.5 nM and 5 nM, respectively.
